Experimental data reported in patent US20230263751A1, “Compositions and Methods of Use of beta-hydroxy-beta-methylbutyrate (HMB) and Chemotherapy Agents” (Metabolic Technologies, LLC, priority 2020, published 2023).

How the values were obtained:
EAC cells [1] = test: Tumor growth inhibition and morphological evaluation of mice with EAC; format: in vivo, Balb/c mice (Mus musculus); conditions: 9 days treatment
Procedure: Female (18 to 23 g weight, 60 days) Balb/c mice (Mus musculus) obtained from controlled reproduction carried out in the sectoral bioterium of the Federal University of Santa Catarina (Brazil), were kept in plastic cages under controlled environmental conditions (12 h light-dark cycle, 25±2° C., relative humidity 60%), receiving commercial feed and water ad libitum.
The moment before the tumor was inoculated, the abdominal circumference was measured. The treatments were administered intraperitoneally for 9 consecutive days. Twenty-four hours after the last treatment, all mice were weighed and their abdominal circumferences measured again. The inhibition (%) of tumour growth was calculated as follow: [(average in waist circumference of the treated group×100)/average in waist circumference of the control group]−100.
(§1) In addition, after euthanasia, all ascitic fluid was collected to measure volume and weight. Finally, Balb/c mice (n=12) were chosen at random and kept alive to assess the effects of HMB, Doxo and Doxo+HMB on survival time according to Kaplan and Meier (1958); survival assessments were discontinued after 30 days.

EAC cells [2] = test: Survival assessment of mice with EAC (Kaplan and Meier); format: in vivo, Balb/c mice (Mus musculus); conditions: for Mean survival time: mice with EAC, n=12, observation discontinued after 30 days, Control 16 days
Source text: as §1

p53 = test: Western blotting of p53 in EAC cells; format: in vivo, Balb/c mice (Mus musculus); conditions: p53/actin
Procedure: (§2) Apoptotic markers were evaluated by Western blotting. EAC cells were washed with PBS and lysed in RIPA buffer supplemented with 1% protease and 3% phosphatase inhibitors. The proteins were further denatured in Laemmli buffer and equivalent amounts were subjected to SDS-PAGE electrophoresis, followed by electroblotting on PVDF membranes. The membranes were blocked and then incubated with the primary monoclonal antibodies: p53 (Santa Cruz Biotechnology, DO-1; sc-126), Bax (Santa Cruz Biotechnology, B-9; sc-7480) and BcL-xl (Santa Cruz Biotechnology, H-5; sc-8392), and subsequently incubated with peroxidase conjugated secondary antibodies (Dako and Chemicon). Immunodetection was performed using a chemiluminescence determination kit, and β-actin was used as a loading control. Images were obtained with the ChemiDoc MP (Bio Rad) system.

Bax/Bcl-xl = test: Western blotting of Bax and Bcl-xl in EAC cells (Bax/Bcl-xl ratio); format: in vivo, Balb/c mice (Mus musculus)
Procedure: as §2, with “EAC cells were washed with PBS and lysed in RIPA buffer supplemented with 1% protease and 3% phosphatase inhibitors.” left out, “control.” for “control. Images were obtained with the ChemiDoc MP (Bio Rad) system.”

[3] = Cachexia assessment (food intake, weight loss, muscle and fat mass) of mice with EAC; format: in vivo, Balb/c mice (Mus musculus); conditions: 9 days; for Average daily food intake: Control 2.17±0.69, Normal 3.30±0.60; for Brown adipose tissue mass / Dry weight soleus muscle / Mesenteric fat mass / Subcutaneous fat mass / Wet weight gastrocnemius muscle / Wet weight soleus muscle: mean ± SD, n=6
Source text: To determine average daily food intake, the weight of the feed consumed was divided by the number of animals in each cage. To evaluate the percentage of weight loss, the “initial weight” (before inoculation of the EAC), “final weight” (after 9 days of treatment) and “carcass weight” (final weight−weight of ascitic liquid) were considered according to standardized equation [27].
The soleus and gastrocnemius muscles were quickly removed and weighed on an analytical balance (wet mass). Soleus samples were used to determine the dry weight after 3 days at 60° C., and the gastrocnemius was kept at −80° C. for the determination of cytokines. The wet mass of the gastrocnemius and soleus muscle (mg) was normalized by the length of the tibia (mm) of the mice. Subcutaneous fat deposits, mesentery and brown adipose tissue were also removed and immediately weighed.

IL-1β = IL-1β in gastrocnemius muscle by ELISA; format: in vivo, Balb/c mice (Mus musculus)
Procedure: (§3) For the determination of cytokines, the gastrocnemius muscle was homogenized in a RIPA buffer supplemented with 1% protease and 3% phosphatase inhibitors, in the proportion 1 mg tissue:10 μl buffer, followed by centrifugation of the homogenate at 12,000 g and 4° C., for 10 minutes. An aliquot of the supernatant was used to determine the cytokines IL-1β and IL-6 by ELISA immunoassay using DuoSet® Kit (R&D System, USA), according to the manufacturer recommendations.

IL-6 = IL-6 in gastrocnemius muscle by ELISA; format: in vivo, Balb/c mice (Mus musculus); conditions: in relation to the Control group
Procedure: as §3

C-reactive protein = test: Serum C-reactive protein (Ultra Turbiquest Plus CRP kit); format: in vivo, Balb/c mice (Mus musculus); conditions: for Serum C-reactive protein levels: mice with EAC, 9 days, Control 1.63, Normal 0.07
Procedure: The determination of C-reactive protein (CRP) in serum was performed by the Ultra Turbiquest Plus® CRP kit, according to the manufacturer instructions.

EAC cells [4] = test: Assessment of death type in harvested tumor cells (propidium iodide/acridine orange)
Procedure: The mice were divided into 5 groups (n=6): Normal (healthy animals), Control (saline), Doxo (1 mg/kg/day), HMB (617.3 mg calcium HMB/kg/day) and Doxo+HMB (1 mg/kg/day and 617.3 mg/kg/day, respectively). The animals belonging to the Control, Doxo, HMB and Doxo+HMB groups were inoculated with EAC cells (200 μL, 5×10^6 cells) by intraperitoneal injection and treatment of animals was started after 96 hours. The dose of HMB was defined based on the recommendation for adult men of 70 kg, that is, 3 g/day (supplementary form) [21].
Harvested tumor cells (5×10^6) were stained with 1 μL of a solution (1:1) of propidium iodide (100 μg/mL) and acridine orange (100 μg/mL). The samples were read by fluorescence microscopy on the green (excitation at 460 nm and emission at 520 nm) and red (excitation at 492 nm at emission at 620 nm) filters, and the results were expressed as percentage of viable (green), apoptotic (orange) and necrotic (red) cells [24].

COX-2 = COX-2 expression in EAC cells by Western blotting; format: in vivo, Balb/c mice (Mus musculus); conditions: COX-2/actin in EAC cells
Procedure: as §2
The COX-2 expression in EAC cells was assessed by Western blotting as described in item 2.2.3. Antibodies to COX-2 were purchased from Cell Signaling (#4842)

[5] = tested on: tumors injected into the peritoneal cavity; conditions: rats; cited from earlier work
[6] = serum HMB levels; cited from earlier work
[7] = EAC cells harvested after 9 days treatment

Row | SMILES | Mean survival time (EAC cells [2]) [days] | Increase of p53 expression in relation to the Control group (p53) [%] | Average daily food intake [3] [g/day] | Brown adipose tissue mass [3] [mg/cm mouse length] | Dry weight soleus muscle [3] [mg/mm tibia length] | Mesenteric fat mass [3] [mg/cm mouse length] | Subcutaneous fat mass [3] [mg/cm mouse length] | Wet weight gastrocnemius muscle [3] [mg/mm tibia length] | Wet weight soleus muscle [3] [mg/mm tibia length] | Reduction of IL-6 (IL-6) [%] | Serum C-reactive protein levels (C-reactive protein) [mg/L] | other results
1 | COc1cccc2c1C(=O)c1c(O)c3c(c(O)c1C2=O)C[C@@](O)(C(=O)CO)C[C@@H]3O[C@H]1C[C@H](N)[C@H](O)[C@H](C)O1 [Doxo, doxorubicin] | 26 | 20 | 2.22 ± 0.63 | 3.6 ± 1.7 | 0.1 ± 0.01 | 2.5 ± 0.6 | 2.2 ± 0.3 | 11.7 ± 0.2 | 0.7 ± 0.15 | 43 | 2.39 | Inhibition of tumor growth (EAC cells [1]; from waist circumference, in relation to the Control group, n=6): 42%; Reduction of body weight variation in relation to the Control group (EAC cells [1]; mice with EAC): 39%; Reduction of volume of ascitic liquid in relation to the Control group (EAC cells [1]; mice with EAC): 54%; Surviving animals at the end of the observation period (EAC cells [2]; n=12, 30 days): 3 animals; Increase of Bax/Bcl-xL ratio in relation to the Control (Bax/Bcl-xl): 38%; Attenuation of weight loss in relation to controls ([3]; EAC caused 11% body weight loss): 54%; Reduction of IL-1β content in relation to controls (IL-1β): 6%; Increase in C-reactive protein levels compared to controls (C-reactive protein; serum): 47%; Apoptotic cells (EAC cells [4]; [7]): 4%; Necrosis (necrotic cells) (EAC cells [4]; [7]): 36%; Viable cells (EAC cells [4]; [7]): 60%; Percentage of death induced by each treatment (EAC cells [4]; as restated in the discussion): 36%
2 | CC(C)(O)CC(=O)O [HMB, β-hydroxy-β-methylbutyrate] | 13.5 | 10 | 2.81 ± 1.05 | 3.2 ± 0.3 | 0.1 ± 0.04 | 3.0 ± 0.8 | 1.9 ± 1.1 | 8.9 ± 0.5 | 0.8 ± 0.2 | 64 | 0.31 | Reduction of COX-2 expression compared to controls (COX-2): 4%; Improved survival [5]: 42%
3 | CC(C)(O)CC(=O)O [free acid form of HMB, β-hydroxy-β-methylbutyric acid] |  |  |  |  |  |  |  |  |  |  |  | Absorption compared with CaHMB [6]: more rapidly absorbed than CaHMB
